# Measurements as given in US20150105252A1, “SUBSTITUTED PYRAZOLES AS HERBICIDES” (E I DU PONT DE NEMOURS AND COMPANY, priority 2013, published 2015).
# Legend:
# field violet = experiment: Test D preemergence; type: in vivo, Viola arvensis; details: Preemergence, scale 0 to 100
# How it was run: (§1)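 Preemergence: seeds sown in silt loam soil and sprayed with test chemical in non-phytotoxic solvent mixture with surfactant. Postemergence: plants grown in peat/vermiculite medium, sprayed at 2–18 cm (1- to 4-leaf stage). Visual rating versus untreated controls after 14–21 days, 0 (no effect) to 100 (complete control).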
# pigweed [1] = experiment: Test D postemergence; type: in vivo, Amaranthus retroflexus; details: scale 0 to 100
# How it was run: as §1
# ryegrass, Italian = experiment: Test D preemergence; type: in vivo, Lolium multiflorum; details: Preemergence, scale 0 to 100
# How it was run: as §1
# speedwell = experiment: Test D preemergence; type: in vivo, Veronica persica; details: Preemergence, scale 0 to 100
# How it was run: as §1
# bluegrass [2] = experiment: Test D postemergence; type: in vivo, Poa annua; details: scale 0 to 100
# How it was run: as §1
# buckwheat, wild = experiment: Test D preemergence; type: in vivo, Polygonum convolvulus; details: Preemergence, scale 0 to 100
# How it was run: as §1
# blackgrass = experiment: Test D postemergence; type: in vivo, Alopecurus myosuroides; details: scale 0 to 100
# How it was run: as §1
# chamomile [3] = experiment: Test D postemergence; type: in vivo, Matricaria inodora; details: scale 0 to 100
# How it was run: as §1
# barley, winter = experiment: Test D preemergence; type: in vivo, Hordeum vulgare; details: Preemergence, scale 0 to 100
# How it was run: as §1
# barley, spring = experiment: Test D preemergence; type: in vivo, Hordeum vulgare; details: Preemergence, scale 0 to 100
# How it was run: as §1
# mustard, wild = experiment: Test D postemergence; type: in vivo, Sinapis arvensis; details: scale 0 to 100
# How it was run: as §1
# canarygrass = experiment: Test D preemergence; type: in vivo, Phalaris minor; details: Preemergence, scale 0 to 100
# How it was run: as §1
# bluegrass [4] = experiment: Test D preemergence; type: in vivo, Poa annua; details: Preemergence, scale 0 to 100
# How it was run: as §1
# chamomile [5] = experiment: Test D preemergence; type: in vivo, Matricaria inodora; details: Preemergence, scale 0 to 100
# How it was run: as §1
# lambsquarters = experiment: Test D postemergence; type: in vivo, Chenopodium album; details: scale 0 to 100
# How it was run: as §1
# bromegrass, downy = experiment: Test D postemergence; type: in vivo, Bromus tectorum; details: scale 0 to 100
# How it was run: as §1
# deadnettle = experiment: Test D preemergence; type: in vivo, Lamium amplexicaule; details: Preemergence, scale 0 to 100
# How it was run: as §1
# pigweed [6] = experiment: Test D preemergence; type: in vivo, Amaranthus retroflexus; details: Preemergence, scale 0 to 100
# How it was run: as §1
# galium = experiment: Test D postemergence; type: in vivo, Galium aparine; details: scale 0 to 100
# How it was run: as §1
# radish, wild = experiment: Test D postemergence; type: in vivo, Raphanus raphanistrum; details: scale 0 to 100
# How it was run: as §1
smiles,measurement,setting,value
CCCc1cc(C(=O)NC(C)C)nn1Cc1cc(C(F)(F)F)nn1C [Compound 201],"Plant response rating, Field Violet",field violet; 62 g ai/ha,100
same,"Plant response rating, Field Violet",field violet; 125 g ai/ha,100
same,"Plant response rating, Field Violet",field violet; 250 g ai/ha,100
same,Pigweed plant response rating,"pigweed [1]; Postemergence, 31 g ai/ha",70
same,Pigweed plant response rating,"pigweed [1]; Postemergence, 125 g ai/ha",75
same,Pigweed plant response rating,"pigweed [1]; Postemergence, 250 g ai/ha",80
same,Pigweed plant response rating,"pigweed [1]; postemergence, 62 g ai/ha",70
same,"Plant response rating, Ryegrass, Italian","ryegrass, Italian; 62 g ai/ha",65
same,"Plant response rating, Ryegrass, Italian","ryegrass, Italian; 125 g ai/ha",85
same,"Plant response rating, Ryegrass, Italian","ryegrass, Italian; 250 g ai/ha",100
same,"Plant response rating, Speedwell",speedwell; 62 g ai/ha,100
same,"Plant response rating, Speedwell",speedwell; 125 g ai/ha,100
same,"Plant response rating, Speedwell",speedwell; 250 g ai/ha,100
same,Bluegrass plant response rating,"bluegrass [2]; Postemergence, 31 g ai/ha",20
same,Bluegrass plant response rating,"bluegrass [2]; Postemergence, 125 g ai/ha",35
same,Bluegrass plant response rating,"bluegrass [2]; Postemergence, 250 g ai/ha",40
same,Bluegrass plant response rating,"bluegrass [2]; postemergence, 62 g ai/ha",20
same,"Plant response rating, Buckwheat, Wild","buckwheat, wild; 31 g ai/ha",15
same,"Plant response rating, Buckwheat, Wild","buckwheat, wild; 62 g ai/ha",100
same,"Plant response rating, Buckwheat, Wild","buckwheat, wild; 250 g ai/ha",100
same,Blackgrass plant response rating,"blackgrass; Postemergence, 31 g ai/ha",25
same,Blackgrass plant response rating,"blackgrass; Postemergence, 125 g ai/ha",50
same,Blackgrass plant response rating,"blackgrass; Postemergence, 250 g ai/ha",65
same,Blackgrass plant response rating,"blackgrass; postemergence, 62 g ai/ha",25
same,Chamomile plant response rating,"chamomile [3]; Postemergence, 31 g ai/ha",35
same,Chamomile plant response rating,"chamomile [3]; Postemergence, 125 g ai/ha",55
same,Chamomile plant response rating,"chamomile [3]; Postemergence, 250 g ai/ha",65
same,Chamomile plant response rating,"chamomile [3]; postemergence, 62 g ai/ha",35
same,"Plant response rating, Barley, Winter","barley, winter; 31 g ai/ha",25
same,"Plant response rating, Barley, Winter","barley, winter; 62 g ai/ha",35
same,"Plant response rating, Barley, Winter","barley, winter; 125 g ai/ha",45
same,"Plant response rating, Barley, Winter","barley, winter; 250 g ai/ha",100
same,"Plant response rating, Barley, Spring","barley, spring; 31 g ai/ha",0
same,"Plant response rating, Barley, Spring","barley, spring; 62 g ai/ha",20
same,"Plant response rating, Barley, Spring","barley, spring; 125 g ai/ha",65
same,"Plant response rating, Barley, Spring","barley, spring; 250 g ai/ha",75
same,"Mustard, Wild plant response rating","mustard, wild; Postemergence, 31 g ai/ha",75
same,"Mustard, Wild plant response rating","mustard, wild; Postemergence, 125 g ai/ha",85
same,"Mustard, Wild plant response rating","mustard, wild; Postemergence, 250 g ai/ha",90
same,"Mustard, Wild plant response rating","mustard, wild; postemergence, 62 g ai/ha",75
same,"Plant response rating, Canarygrass",canarygrass; 31 g ai/ha,60
same,"Plant response rating, Canarygrass",canarygrass; 62 g ai/ha,100
same,"Plant response rating, Canarygrass",canarygrass; 125 g ai/ha,100
same,"Plant response rating, Canarygrass",canarygrass; 250 g ai/ha,100
same,"Plant response rating, Bluegrass",bluegrass [4]; 31 g ai/ha,20
same,"Plant response rating, Bluegrass",bluegrass [4]; 62 g ai/ha,50
same,"Plant response rating, Bluegrass",bluegrass [4]; 125 g ai/ha,80
same,"Plant response rating, Bluegrass",bluegrass [4]; 250 g ai/ha,95
same,"Plant response rating, Chamomile",chamomile [5]; 31 g ai/ha,50
same,"Plant response rating, Chamomile",chamomile [5]; 62 g ai/ha,100
same,"Plant response rating, Chamomile",chamomile [5]; 125 g ai/ha,100
same,"Plant response rating, Chamomile",chamomile [5]; 250 g ai/ha,100
same,Lambsquarters plant response rating,"lambsquarters; Postemergence, 31 g ai/ha",75
same,Lambsquarters plant response rating,"lambsquarters; Postemergence, 125 g ai/ha",90
same,Lambsquarters plant response rating,"lambsquarters; Postemergence, 250 g ai/ha",90
same,Lambsquarters plant response rating,"lambsquarters; postemergence, 62 g ai/ha",75
same,"Bromegrass, Downy plant response rating","bromegrass, downy; Postemergence, 31 g ai/ha",30
same,"Bromegrass, Downy plant response rating","bromegrass, downy; Postemergence, 125 g ai/ha",35
same,"Bromegrass, Downy plant response rating","bromegrass, downy; Postemergence, 250 g ai/ha",50
same,"Bromegrass, Downy plant response rating","bromegrass, downy; postemergence, 62 g ai/ha",30
same,"Plant response rating, Deadnettle",deadnettle; 31 g ai/ha,100
same,"Plant response rating, Deadnettle",deadnettle; 62 g ai/ha,100
same,"Plant response rating, Deadnettle",deadnettle; 125 g ai/ha,100
same,"Plant response rating, Deadnettle",deadnettle; 250 g ai/ha,100
same,"Plant response rating, Pigweed",pigweed [6]; 62 g ai/ha,80
same,"Plant response rating, Pigweed",pigweed [6]; 125 g ai/ha,100
same,"Plant response rating, Pigweed",pigweed [6]; 250 g ai/ha,100
same,Galium plant response rating,"galium; Postemergence, 31 g ai/ha",70
same,Galium plant response rating,"galium; Postemergence, 125 g ai/ha",70
same,Galium plant response rating,"galium; Postemergence, 250 g ai/ha",85
same,Galium plant response rating,"galium; postemergence, 62 g ai/ha",70
same,"Radish, Wild plant response rating","radish, wild; Postemergence, 31 g ai/ha",65
same,"Radish, Wild plant response rating","radish, wild; Postemergence, 125 g ai/ha",65
same,"Radish, Wild plant response rating","radish, wild; Postemergence, 250 g ai/ha",65
same,"Radish, Wild plant response rating","radish, wild; postemergence, 62 g ai/ha",65
